Values after ≈ are worked out from the molar mass of the structure shown. Read-outs that look alike come from different tables or passages of the source.
What was measured:
E. coli RNase III = E. coli RNase III (Escherichia coli, UniProt P0A7Y0); assay: ribonuclease specificity test; type: biochemical; conditions: data not shown
Source text: (§1) In total, fourteen molecules inhibited the enzyme's RNA turnover activity by ≧50%. A gel-based secondary assay confirmed that five of these molecules were bona-fide inhibitors of RnpA-mediated RNA degradation (FIG. 3B).

RNase I = target: T1, RNase I (Escherichia coli, UniProt P21338); assay: ribonuclease specificity test; type: biochemical; conditions: any concentration tested (0-750 μM)
T1 construct: purchased
T1 sequence (P21338 24-268): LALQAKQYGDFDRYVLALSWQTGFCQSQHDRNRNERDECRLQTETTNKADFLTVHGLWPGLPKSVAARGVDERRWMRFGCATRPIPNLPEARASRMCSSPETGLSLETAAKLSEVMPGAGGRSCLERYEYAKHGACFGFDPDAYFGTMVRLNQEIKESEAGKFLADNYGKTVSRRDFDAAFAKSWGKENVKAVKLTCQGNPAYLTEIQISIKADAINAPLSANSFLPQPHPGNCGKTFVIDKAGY
Source text: as §1

S. aureus RNase J1 = target: T2, S. aureus RNase J1 (Staphylococcus aureus, UniProt Q2FZG9); assay: ribonuclease specificity test; type: biochemical; conditions: any concentration tested (0-750 μM)
T2 construct: hexahistidine-tag (N); made in house; host or cells: E. coli BL21 (DE3)
Source text: as §1

E. faecalis = assay: CLSI broth microdilution MIC; type: cell-based, Enterococcus faecalis
Source text: (§2) In some examples, compounds can be further assayed using the Mueller Hinton (MH) broth antibacterial assay as specified by the Clinical and Laboratory Standards Institute MIC broth microdilution protocol (see Methods for Dilution Antimicrobial Susceptibility Tests for Bacteria That Grow Aerobically; Approved Standard, In The Clinical and Laboratory Standards Institute (CLSI, formerly NCCLS), 7th ed., January 2006, 26 (2), M7-A7; see also Performance Standards for Antimicrobial Susceptibility Testing; Eighteenth Informational Supplement, In The Clinical and Laboratory Standards Institute (CLSI, formerly NCCLS), January 2008, 28 (1), M100-S18).
(§3) With the exception of RN4220-derivatives, in vitro activities of RNPA1000 against bacteria were determined by the broth microdilution method according to the Clinical and Laboratory Standards Institute (CLSI) guidelines using cation adjusted Mueller-Hinton broth or MH broth supplemented with 5% lysed horse blood (for testing Streptotococcus spp.). Microtiter plates containing serial dilutions of RNPA1000 (0, 4, 8, 16, 32, 64, and 128 μg/ml) were inoculated with 10^5 colony forming units (CFU)/ml and incubated for 18 hr at 37° C. […] The MIC value for each S. aureus strain was determined to be the median score of replicate measurements (n=5). Wells containing concentrations of RNPA1000≧MIC were plated for minimal bactericidal measurement. Where possible, experiments with VRSA strains were performed in a laminar flow hood to minimize potential for equipment contamination. For RN4220 cells containing plasmid vector (pCN51), RnpA overproducing plasmid (pRNPA-S) or RnpA underproducing plasmid (pRNPA-A.S.) in vitro antimicrobial activity of RNPA1000 was performed by the microdilution method as described above, except that cells were grown in Tryptic Soy Broth medium supplemented with 2.5 μM CdCl2 and 0, 1, 2, 4, 8, 16, 32, 64, or 128 μg/ml RNPA1000. Time-kill assays were also performed to monitor the antimicrobial properties of RNPA1000 for S. aureus strain UAMS-1 in the absence and presence of 0.25, 0.5, 2, and 4 times the strain's MIC for oxacillin (1 μg/ml), rifampicin (0.5 μg/ml), vancomycin (2 μg/ml), or daptomycin (1 μg/ml). The indicated amount of RNPA1000 and/or commercial antibiotic were added to mid-exponential phase (2×10^8 cfu/ml) S. aureus strain UAMS-1 cells and incubated at 37° C. Aliquots were removed at 0, 2, 4, 8, and 24 hr post-antimicrobial challenge, serial diluted, and plated to enumerate resulting cfu/ml. All time-kill assays were repeated at least 3 times.

E. faecium (VRE) = assay: CLSI broth microdilution MIC; type: cell-based, Enterococcus faecium; conditions: for MIC: Enterococcus faecium
Source text: as §2, §3

E. faecium = assay: CLSI broth microdilution MIC; type: cell-based, Enterococcus faecium; conditions: for MIC: Enterococcus faecium
Source text: as §2, §3

S. aureus RN4220 = assay: microdilution MIC of RnpA over- and under-producing cells; type: cell-based; conditions: Staphylococcus aureus, 2.5 μM CdCl2
Protocol: as §3, with “The indicated amount of RNPA1000 and/or commercial antibiotic were added to mid-exponential phase (2×10^8 cfu/ml) S. aureus strain UAMS-1 cells and incubated at 37° C. Aliquots were removed at 0, 2, 4, 8, and 24 hr post-antimicrobial challenge, serial diluted, and plated to enumerate resulting cfu/ml. All time-kill assays were repeated at least 3 times.” left out
To assess whether the susceptibility of S. aureus to RNPA1000 was attributable to the inhibition of cellular RnpA, the mRNA turnover properties of S. aureus that were challenged with a sub-inhibitory concentration of RnpA-inhibitor (0.5× MIC) were directly measured. […] To more directly determine whether RNPA1000's antimicrobial effects are mediated through cellular inhibition of RnpA, the RNPA1000 susceptibility of S. aureus RnpA over- and under-producing cells was assessed. […]

S. aureus strain UAMS-1 = assay: time-kill assay; type: cell-based
Protocol: as §3

[1] = tested on: biofilm-associated S. aureus strain UAMS-1; assay: in vitro catheter biofilm assay; type: cell-based
Protocol: To determine this, in vitro biofilm assays were performed as described in Weiss et al., Antimicrob Agents Chemother, 53: 2475-2482 (2009). Briefly, 1 cm segments of 14-gauge fluorinated ethylene propylene Introcan Safety Catheters (B. Braun, Bethlehem, Pa.) were coated with human plasma and placed in individual wells of a 12-well microtiter plate containing 2 ml biofilm medium and S. aureus strain UAMS-1 at a final OD600 nm of 0.05. Following overnight incubation at 37° C. catheters were removed, rinsed in phosphate buffered saline (PBS), and transferred to fresh biofilm medium containing 0, 5, 10, or 20 times the S. aureus MIC for RNPA1000. Catheters exposed to each dose (n=3) were recovered daily over a period of 3 days, with the medium being replaced each day. After each recovery time point catheters were rinsed in PBS and adherent bacteria were enumerated by sonication and plating. Analysis of variance (ANOVA) of logarithmically-transformed bacterial count data was used to evaluate the effect of RNPA1000 exposure.

[2] = combination time-kill, data not shown

Chain of E. coli RNase III (P0A7Y0 whole entry): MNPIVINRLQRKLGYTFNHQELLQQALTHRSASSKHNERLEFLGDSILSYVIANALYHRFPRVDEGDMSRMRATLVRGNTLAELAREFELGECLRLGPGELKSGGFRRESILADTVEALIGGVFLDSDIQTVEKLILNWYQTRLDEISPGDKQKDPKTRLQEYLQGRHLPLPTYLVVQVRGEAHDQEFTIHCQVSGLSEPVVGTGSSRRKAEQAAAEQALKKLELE

For `Cc1cc(/C=C(/C#N)C(=O)Nc2cccc(Br)c2)c(C)n1-c1ccc(C(=O)O)cc1` [RNPA1000], the IC50 (E. coli RNase III) was 500 to 750 µM, the “effect on RNase I activity” value (RNase I) was “did not affect the activity” and the “effect on S. aureus RNase J1 activity” value (S. aureus RNase J1) was “did not affect the activity”. The “antimicrobial activity in words” value (E. faecalis) was “mild activity”, the MIC (E. faecalis; E. faecalis Isolate 1) was 64 µg/mL (≈ 138 µM) and the MIC (E. faecalis; E. faecalis Isolate 3) was 64 µg/mL (≈ 138 µM). It also gave an MIC (E. faecalis; E. faecalis Isolate 4) of 64 µg/mL (≈ 138 µM), an MIC (E. faecalis; E. faecalis Isolate 5) of 64 µg/mL (≈ 138 µM) and an MIC (E. faecalis; Enterococcus faecalis, E. faecalis Isolate 2, read-out: MIC) of 64 µg/mL (≈ 138 µM). For the same compound, the “antimicrobial activity in words” value (E. faecium (VRE)) was “mild activity”, the MIC (E. faecium (VRE); E. faecium (VRE) Isolate 1) was 64 µg/mL (≈ 138 µM) and the MIC (E. faecium (VRE); E. faecium (VRE) Isolate 2) was 64 µg/mL (≈ 138 µM). The MIC (E. faecium (VRE); E. faecium (VRE) Isolate 3) was 32 µg/mL (≈ 68.9 µM), the MIC (E. faecium (VRE); E. faecium (VRE) Isolate 4) was 64 µg/mL (≈ 138 µM) and the MIC (E. faecium (VRE); E. faecium (VRE) Isolate 5) was 32 µg/mL (≈ 68.9 µM). The “antimicrobial activity in words” value (E. faecium) was “mild activity”, the MIC (E. faecium; E. faecium Isolate 1, read-out: MIC) was 64 µg/mL (≈ 138 µM) and the MIC (E. faecium; E. faecium Isolate 2, read-out: MIC) was 64 µg/mL (≈ 138 µM). The MIC (E. faecium; E. faecium Isolate 3, read-out: MIC) was 64 µg/mL (≈ 138 µM), the MIC (E. faecium; E. faecium Isolate 4, read-out: MIC) was 64 µg/mL (≈ 138 µM) and the MIC (E. faecium; E. faecium Isolate 5 + reserpine (efflux pump inhibitor)) was 32 µg/mL. For the same compound, the MIC (E. faecium; E. faecium Isolate 5, read-out: MIC) was 64 µg/mL (≈ 138 µM), the MIC (S. aureus RN4220; RN4220, RN4220 RnpA overproducing cells) was 32 µg/mL and the MIC (S. aureus RN4220; RN4220, RN4220 RnpA underproducing cells (antisense)) was 8 µg/mL. The MIC (S. aureus RN4220; RN4220, RN4220 vector containing cells (pCN51)) was 32 µg/mL, the “mode of antimicrobial action in time kill assays” value (S. aureus strain UAMS-1; 0.25-4 times the MIC, 0-24 hr) was “bacteriostatic” and the “effect on the potency of oxacillin” value (S. aureus strain UAMS-1; combination time-kill, 0.5 times the MIC of each) was “mildly increase the potency”. For the same compound, the “effect on the antimicrobial activity of daptomycin” value (S. aureus strain UAMS-1; [2]) was “does not affect the antimicrobial activities”, the “effect on the antimicrobial activity of rifampicin” value (S. aureus strain UAMS-1; [2]) was “does not affect the antimicrobial activities” and the “effect on the antimicrobial activity of vancomycin” value (S. aureus strain UAMS-1; [2]) was “does not affect the antimicrobial activities”. For the same compound, the bacterial clearance ([1]; 5, 10 or 20× MIC, up to 3 days) was “never achieved”, the “decrease in bacterial burden” value ([1]; 5× MIC for 24 hr) was 3 log and the “maximal reduction in biofilm-associated bacteria” value ([1]; up to 20× MIC, up to 3 days) was 5 log.

Reference: patent US9233095B2, “Small molecule RNase inhibitors and methods of use” (University of Rochester, priority 2011, dated 2016)
